{"source": "patent US20230071441A1", "about": "“CIGARETTE FILTER CONTAINING NATURAL PLANT MATERIAL, PREPARATION METHOD THEREOF, AND CIGARETTE INCLUDING THE FILTER” (KT & G Corporation, priority 2019, published 2023)", "key": {"[1]": {"assay": "Methyl mercaptan reducing ability (deodorizing activity), headspace GC/MS", "conditions": "methyl mercaptan 1 μg/ml 2 ml, pH 7.5, 42 degrees C. 6 minutes; powders/granules 10 mg in 2 ml water; oil/flavoring liquid 2 ml; single ingredient 3 ppm", "procedure": "Using the cigarette prepared in Example 24-1, an experiment was conducted to identify reducing ability for the methyl mercaptan as a representative halitosis ingredient in the cigarette smoke.\nPine needle and rosemary based powders, granules, oils, and flavoring liquid, as well as pine needle based fragrance carrying ingredients, that is, alpha-pinene, bonyl acetate, and rosemary based fragrance carrying ingredients, that is, 1,8-cineol, and borneol were added to the cigarette filter. Thus, a cigarette including the cigarette filter was prepared to identify methyl mercaptan reducing ability.\nA content of methyl mercaptan as used was 1 ppm [1 μg/ml] 2 ml. When the pine needle and rosemary based powders and granules were used, 10 mg of the sample was extracted with 2 ml of water and was used. In one example, when using the oil and flavoring liquid based on pine needle and rosemary, 2 ml thereof was used. As for a single ingredient, 3 ppm (3 μg/ml) of the sample was extracted with 2 ml of water and was used.\nThe analysis experiment of reducing ability for methyl mercaptan included a pretreatment process of the sample, and the analysis process under the headspace sampler condition and the GC/MS-SIM condition. First, 10 mg of pine needle and rosemary based powders and granules sample were put into a 20 ml vial, which was immersed in 2 ml of water for 1 hour. Next, 2 ml of 0.2 M potassium phosphate was added thereto and the pH was adjusted to 7.5. Thereafter, 2 ml of methyl mercaptan (1 μg/ml) was added thereto and the vial was sealed, followed by stirring with a Vortex mixer for 5 seconds. In the headspace sampler, reaction occurred at 42 degrees C. for 6 minutes, and methyl mercaptan isolated into headspace was directly analyzed via GC/MS. An area of methyl mercaptan obtained as a result of the GC/MS analysis was compared with that of the control to determine the reduction percentage.\nDeodorizing Activity (DA, %)=[C−S]/C×100 • C: methyl mercaptan area of control • S: Methyl mercaptan area of test group • See Tokita, F. et al. Nippon Nogeikagaku Kaishi 58(6), p 585 to 589 [1984].\nThe GC/MS instrument based analysis conditions were set as follows. Headspace Sampler conditions were set as follows: culture temperature: 42 degrees C., culture duration: 6 minutes, and transfer liner temperature: 100 degrees C.\nThe GC/MS-SIM conditions were set as follows: DB-624(60 m, 0.25 mm, 0.25 um) column was used; Oven Temp: 35 degrees C. for 10 minutes; post run: 250 degrees C. for 30 minutes. Injector/Interface Temp was 150 degrees C. or 220 degrees C. For injection, Split 10:1, flow rate 1 ml/min, methyl mercaptan ion (m/z): quantitative ion 47; and qualitative ion 48 and 45. […]"}, "[2]": {"system": "halitosis ingredient (Hydrogen sulfide) derived from oral microbes", "assay": "Sedimentation of halitosis ingredient by absorbance analysis (FeS, 700 nm) in cultured saliva", "type": "cell-based, oral bacteria in saliva", "conditions": "cultured saliva 0.5 ml, FeSO4, 24 hours 37 degrees C. anaerobic, absorbance 700 nm", "procedure": "Using the cigarette prepared in Example 24-1, the sedimentation of halitosis ingredient thereof was measured via absorbance analysis. To this end, an experiment was conducted to identify the reducing ability for the halitosis ingredient derived from oral microbes when smoking the cigarette with the filter having the pine needle and rosemary based substances added thereto.\nThe experiment for measuring the sedimentation of halitosis ingredients was as follows. Hydrogen sulfide in a volatile sulfur compound as mouth odor ingredient generated when cultivating oral bacteria in saliva was combined with iron in a liquid state such that iron sulfide (FeS) in a form of a black precipitate occurred. Thus, the sedimentation of halitosis ingredient was analyzed. First, whole saliva was incubated for 48 hours at 37 degrees C. under anaerobic conditions. Then, […] of oil based test substance or 20 μl of a single ingredient was added to 0.5 ml cultured saliva. 0.05 g surfactant was added thereto. The salvia was mixed with 0.05 g ferrous sulfate II (FeSO4). The mixture was incubated for 24 hours at 37 degrees C. under anaerobic conditions. Thus, absorbance of the culture was measured at 700 nm to determine sedimentation of halitosis ingredients.\nHowever, there was a limit in the detection in the direct analysis of cigarette due to the difference in smoking amount."}}, "data": [{"smiles": "CC1(C)C2CCC1(C)C(O)C2", "note": "(centres unmarked) [Borneol]", "values": [{"measurement": "Methyl mercaptan Reducing ability (%)", "setting": "[1]", "value": 30.7, "unit": "%"}, {"measurement": "Halitosis ingredient (Hydrogen sulfide) Reducing ability (%)", "setting": "[2]", "value": 45.0, "unit": "%"}]}, {"smiles": "CC12CCC(CC1)C(C)(C)O2", "note": "[1,8-Cineol]", "values": [{"measurement": "Methyl mercaptan Reducing ability (%)", "setting": "[1]", "value": 51.9, "unit": "%"}, {"measurement": "Halitosis ingredient (Hydrogen sulfide) Reducing ability (%)", "setting": "[2]", "value": 37.0, "unit": "%"}]}, {"smiles": "CC1=CCC2CC1C2(C)C", "note": "(stereo not drawn) [α-Pinene]", "values": [{"measurement": "Methyl mercaptan Reducing ability (%)", "setting": "[1]", "value": 54.7, "unit": "%"}, {"measurement": "Halitosis ingredient (Hydrogen sulfide) Reducing ability (%)", "setting": "[2]", "value": 50.0, "unit": "%"}]}, {"smiles": "CC(=O)O[C@@H]1C[C@@H]2CC[C@@]1(C)C2(C)C", "note": "[Bonyl acetate]", "values": [{"measurement": "Methyl mercaptan Reducing ability (%)", "setting": "[1]", "value": 41.7, "unit": "%"}, {"measurement": "Halitosis ingredient (Hydrogen sulfide) Reducing ability (%)", "setting": "[2]", "value": 36.0, "unit": "%"}]}]}
